Measurements taken from patent publication US10828301B2, “2,4-pyrimidinediamine compounds and their uses” (Rigel Pharmaceuticals, Inc, priority 2002, dated 2020).

How the values were obtained:
[1] = test system: Jurkat cells; experiment: Jurkat (T-cell) toxicity, light scatter; assay type: cell-based; settings: Homo sapiens, 18-24 hr, flow cytometric light scatter, read-out: Toxicity Jurkat Light Scat.
Description: Dilute Jurkat cells to 2×10^5 cells/ml in complete RPMI (10% heat-inactivated fetal bovine serum) media and incubate at 37° C., 5% CO2 for 18 hours. Add 65 ul cells at 7.7×10^5 cells/ml to a 96-well V-bottom plate (TC-treated, Costar) containing 65 ul 2× compound (final vehicle concentration is 0.5% DMSO, 1.5% MeOH). Mix, incubate plates for 18-24 hr at 37° C., 5% CO2. Toxicity was assessed by flow cytometric analysis of cellular light scatter

[2] = test system: B-cell line BJAB; experiment: BJAB (B-cell) toxicity, light scatter; assay type: cell-based; settings: Homo sapiens; BJAB B-cells, flow cytometric light scatter; read-out: Toxicity BJAB Light Scat.
Description: The B-cell line BJAB was cultured in log phase in RPMI1640+10% heat-inactivated fetal bovine serum, lx L-glutamine, lx penicillin, lx […] and 1× beta-mercaptoethanol at 37° C., 5% CO2. First, BJABs were harvested, spun and resuspended in culture medium to a concentration of 7.7×10^5 cells/mL. 65 uL cells were mixed with 65 uL compound, in duplicate and in the presence of 0.1% DMSO in a V-bottomed 96-well tissue culture plate. Cells were incubated with compound at various dilutions at 37° C., 5% CO2. Toxicity was assessed by flow cytometric analysis of cellular light scatter.

[3] = test system: cultured human mast cells (CHMC); experiment: CHMC low cell density IgE activation: tryptase and LTC4 assays; assay type: cell-based; settings: Homo sapiens, Mast cell, Low Density CHMC, anti-IgE activation
Summary of the method: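 Degranulation measured after 30 min anti-IgE challenge at 37° C of CHMC plated at 1000-1500 cells/well following 1 h preincubation. Readouts: LTC4 by ELISA on donor-specific diluted supernatants, and tryptase activity from a 30 min room-temperature substrate reaction.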

[4] = test system: cultured human mast cells (CHMC); experiment: CHMC low cell density ionomycin activation: tryptase assay; assay type: cell-based; settings: Homo sapiens, Mast cell, Low Density CHMC, ionomycin activation
[5] = biological target: FcγRI receptor-mediated degranulation; experiment: FcγRI-mediated degranulation (activation with anti-human IgG Fab fragment); settings: cells not primed with IgE, activated with rabbit anti-human IgG Fab fragment
[6] = test system: ionophore-induced degranulation of mast and/or basophil cells; experiment: Ionophore (ionomycin or A23187)-induced degranulation counter screen; assay type: cell-based; settings: Mus musculus; high density BMMC, ionomycin activation, hexosaminidase release; read-out: BMMC Ionomycin Hexos. IC50
Text: In addition to the FcεRI or FcγRI degranulation pathways discussed above, degranulation of mast and/or basophil cells can be induced by other agents. For example, ionomycin, a calcium ionophore that bypasses the early FcεRI or FcγRI signal transduction machinery of the cell, directly induces a calcium flux that triggers degranulation. Referring again to FIG. 2, activated PLCγ initiates pathways that lead to, among other things, calcium ion mobilization and subsequent degranulation. As illustrated, this Ca^2+ mobilization is triggered late in the FcεRI signal transduction pathway. […] Other ionophores that induce degranulation in this manner include A23187. The ability of granulation-inducing ionophores such as ionomycin to bypass the early stages of the FcεRI and/or FcγRI signaling cascades may be used as a counter screen to identify active compounds of the invention that specifically exert their degranulation-inhibitory activity by blocking or inhibiting the early FcεRI or FcγRI signaling cascades, as discussed above.
Assays suitable for determining the IC50 of ionophore-induced degranulation include any of the previously-described degranulation assays, with the modification that the cells are stimulated or activated with a degranulation-inducing calcium ionophore such as ionomycin or A23187 (A.G. Scientific, San Diego, Calif.) instead of anti-IgE antibodies or an IgE-specific allergen. Specific assays for assessing the ability of a particular 2,4-pyrimidinediamine compound of the invention to inhibit ionophore-induced degranulation are provided in the Examples section.

[7] = test system: bone marrow derived mast cells (BMMC); experiment: BMMC high cell density IgE activation: degranulation (hexosiminidase, histamine), leukotriene (LTC4) and cytokine (TNFalpha, IL-6) assays; assay type: cell-based; settings: Mus musculus, anti-IgE activation, hexosaminidase release, read-out: BMMC anti-IgE hexos IC50
Description: After sensitizing, cells are counted, pelleted (1000 rpm, 5-10 minutes), and resuspended at 1-3×10^6 cells/ml in MT buffer. Add 100 ul of cell suspension to each well and 100 ul of compound dilutions. The final vehicle concentration is 0.5% DMSO. Incubate at 37° C. (5% CO2) for 1 hour. After 1 hour of compound treatment, stimulate cells with 6× stimulus (60 ng/ml DNP-BSA). Mix wells with the cells and allow plates to incubate at 37° C. (5% CO2) for one hour. After 1 hour incubation, pellet cells (10 minutes, 1000 RPM) and collect 200 ul per well of the supernatant, being careful not to disturb pellet, and transfer to a clean tube or 96-well plate. Place the supernatant plate on ice. During the 4-5 hour step (see next) perform the hexosiminidase assay. Resuspend cell pellet in 240 ul WEI-conditioned media containing 0.5% DMSO and corresponding concentration of compound. Incubate BMMC cells for 4-5 hours at 37° C. (5% CO2). After incubation, pellet cells (1000 RPM, 10 minutes) and collect 225 ul per well and place in −80° C. until ready to perform ELISAS. ELISAS are performed on appropriately diluted samples (determined empirically for each donor cell population so that the sample measurement falls within the standard curve) following the supplier's instructions.
Add 50 uL of BMMC cell supernatant (see above) to the hexoseaminidase substrate, place at 37° C. for 30 minutes and read the plate at 5, 10, 15, and 30 minutes on a spectrophotometer.

[8] = test system: basophils in whole human peripheral blood; experiment: Basophil IgE activation: histamine release assay; assay type: cell-based; settings: Homo sapiens, anti-IgE activation
Description: The basophil activation assay was carried out using whole human peripheral blood from donors allergic to dust mites with the majority of the red blood cells removed by dextran sedimentation. Human peripheral blood was mixed 1:1 with 3% dextran T500 and RBCs were allowed to settle for 20-25 min. The upper fraction was diluted with 3 volumes of D-PBS and cells were spun down for 10 min at 1500 rpm, RT. Supernatant was aspirated and cells were washed in an equal volume MT-buffer. Finally, cells were resuspended in MT-buffer containing 0.5% DMSO in the original blood volume. 80 uL cells were mixed with 20 uL compound in the presence of 0.5% DMSO, in triplicate, in a V-bottom 96-well tissue culture plate. A dose range of 8 compound concentrations was tested resulting in a 10-point dose response curve including maximum (stimulated) and minimum (unstimulated) response. […] The cells were stimulated for 30 minutes at 37° C., 5% CO2. The plate was spun for 10 min at 1500 rpm at room temperature and 80 uL the supernatant was harvested for histamine content analysis using the histamine ELISA kit supplied by Immunotech. The ELISA was performed according to supplier's instructions.

[9] = test system: basophils in whole human peripheral blood; experiment: Basophil ionomycin activation: histamine release assay; assay type: cell-based; settings: Homo sapiens
Description: Assays for ionomycin-induced basophil cell degranulation were carried out as described for the Basophil IgE or Dustmite Activation Assay (Section 6.4.6, supra), with the exception that following incubation with compound, cells were stimulated with 20 μl of 2 μM ionomycin.

[10] = LTC4 readout, read-out: CHMC anti-IgE LTC4
[11] = tryptase readout, read-out: CHMC anti-IgE Tryptase
[12] = tryptase readout, read-out: CHMC Ionomycin Tryptase
[13] = hexosaminidase readout, read-out: CHMC anti-IgE Hexos.
[14] = hexosaminidase readout, read-out: CHMC Ionomycin Hexos.

SMILES	IC50 [1]	IC50 [2]	IC50 [3, 10]	IC50 [3, 11]	IC50 [4, 12]	inhibition of FcγRI-mediated degranulation [5]	IC50 [6]	IC50 [3, 13]	IC50 [7]	IC50 [8]	IC50 [4, 14]	IC50 [9]
Cc1cccc(Nc2ncc(F)c(Nc3cccc(C)c3)n2)c1 [Compound R092788, N2,N4-bis(3-methylphenyl)-5-fluoro-2,4-pyrimidinediamine]	> 10000 nM	> 10000 nM										
Oc1cccc(Nc2ncc(Br)c(Nc3cccc(O)c3)n2)c1 [Compound R925778, N2,N4-Bis(3-hydroxyphenyl)-5-bromo-2,4-pyrimidinediamine]	> 10000 nM	> 10000 nM	180 nM	225 nM	> 10000 nM							
Cc1cc(Nc2ncc(F)c(Nc3ccc4c(c3)NC(=O)C(F)(F)O4)n2)cc(Cl)c1O [Compound R926971]						inhibit FcγRI-mediated degranulation						
COc1ccc(Nc2ncc(F)c(Nc3ccc(OC)c(OC)c3)n2)cc1OC [Compound R926110, N2,N4-Bis(3,4-dimethoxyphenyl)-5-fluoro-2,4-pyrimidinediamine]	> 10000 nM	> 10000 nM	1420 nM	1070 nM	> 10000 nM		4500 nM	1200 nM	1000 nM	300 nM	> 10000 nM	> 10000 nM
Oc1cccc(Nc2nc(Nc3ccc4c(c3)OCCO4)ncc2Br)c1 [Compound R925797, 5-Bromo-N2-(3,4-ethylenedioxyphenyl)-N4-(3-hydroxyphenyl)-2,4-pyrimidinediamine]	> 10000 nM	> 10000 nM	280 nM	850 nM	> 10000 nM							
CCOc1ccc(Nc2nc(Nc3cccc(O)c3)ncc2F)cc1 [Compound R926146, N4-(4-Ethoxyphenyl)-N2-(3-hydroxyphenyl)-5-fluoro-2,4-pyrimidinediamine]	> 10000 nM	> 10000 nM	1590 nM				5000 nM	761 nM	1350 nM		6700 nM	
CNC(=O)COc1cccc(Nc2ncc(F)c(Nc3ccc4c(c3)NC(=O)C(F)(F)O4)n2)c1 [Compound R921303, N4-[(2,2-Difluoro-4H-benzo[1,4]oxazin-3-one)-6-yl]-5-fluoro-N2-[3-(methylaminocarbonylmethyleneoxy)phenyl]-2,4-pyrimidinediamine]						inhibit FcγRI-mediated degranulation						
Oc1cccc(Nc2ccnc(Nc3cccc(O)c3)n2)c1 [Compound R926249, N2,N4-Bis(3-hydroxyphenyl)-2,4-pyrimidinediamine]	> 10000 nM	> 10000 nM	250 nM	500 nM	> 10000 nM							
CC(=O)Oc1cccc(Nc2ncc(F)c(Nc3cccc(OC(C)=O)c3)n2)c1 [Compound R926387, N2,N4-Bis(3-acetyloxyphenyl)-5-fluoro-2,4-pyrimidinediamine]	> 10000 nM	> 10000 nM	700 nM	650 nM	> 10000 nM							
CCOc1ccc(Nc2ncc(F)c(Nc3ccc4c(c3)OCCO4)n2)cc1 [Compound R926211, N2-(4-Ethoxyphenyl)-N4-(3,4-ethylenedioxyphenyl)-5-fluoro-2,4-pyrimidinediamine]				1300 nM	9800 nM		> 10000 nM	2700 nM	3900 nM	1550 nM	> 10000 nM	> 10000 nM
CCOc1ccc(Nc2nc(Nc3ccc(OC)c(OC)c3)ncc2F)cc1 [Compound R926108, N2-(3,4-Dimethoxyphenyl)-N4-(4-ethoxyphenyl)-5-fluoro-2,4-pyrimidinediamine]	> 10000 nM	> 10000 nM	760 nM				> 10000 nM	787 nM	900 nM	950 nM	6400 nM	> 10000 nM
COc1ccc(Nc2ncc(F)c(Nc3ccc(OC)cc3)n2)cc1 [Compound R926017, N2,N4-Bis(4-methoxyphenyl)-5-fluoro-2,4-pyrimidinediamine]							9600 nM	1430 nM	1400 nM	530 nM	> 10000 nM	> 10000 nM
Oc1cccc(Nc2ncc(F)c(Nc3ccc4c(c3)OCCO4)n2)c1 [Compound R926210, N4-(3,4-Ethylenedioxyphenyl)-5-fluoro-N2-(3-hydroxyphenyl)-2,4-pyrimidinediamine]	> 10000 nM	> 10000 nM	800 nM				> 10000 nM		600 nM	370 nM		> 10000 nM
Cc1cnc(Nc2cccc(O)c2)nc1Nc1cccc(O)c1 [Compound R926248, N2,N4-Bis(3-hydroxyphenyl)-5-methyl-2,4-pyrimidinediamine]	> 10000 nM	> 10000 nM	760 nM	900 nM	> 10000 nM							
COc1ccc(Nc2ncc(F)c(Nc3ccc4c(c3)OCCO4)n2)cc1OC [Compound R926212, N2-(3,4-Dimethoxyphenyl)-N4-(3,4-ethylenedioxyphenyl)-5-fluoro-2,4-pyrimidinediamine]			450 nM	654 nM	> 10000 nM		5000 nM		500 nM	500 nM		> 10000 nM
